In paper PMC4733634 (Journal of the American Chemical Society, 2015):
≈ marks a conversion by molar mass, not a printed value.

What was measured:
[1] = tested on: S. aureus quality control strain 43300 (ATCC); assay: microbe, parasite or virus in culture; assay type: cell-based; conditions: Staphylococcus aureus, ATCC43300|MRSA, 18 h, read-out: MIC wild-type S.aureus
[2] = tested on: lab generated F98Y mutant strain; assay: Minimum inhibitory concentration, micro-dilution broth assay, F98Y mutant strain; assay type: cell-based, S. aureus; conditions: Staphylococcus aureus, 18 h, read-out: MIC Sa(F98Y)

COc1cc(Cc2cnc(N)nc2N)cc(OC)c1OC [TMP, trimethoprim]
MIC [1]: 0.312 µg/mL (≈ 1.08 µM) | MIC [2]: 10 µg/mL (≈ 34.4 µM)
